Experimental data from patent publication US10711245B2, “Direct conversion method of human fibroblasts into neural stem cells using small molecules” (KOREA UNIVERSITY RESEARCH AND BUSINESS FOUNDATION, priority 2015, dated 2020).

Tested on: human fibroblasts
Experiment: Marker gene expression by quantitative PCR in human fibroblasts cultured with each single small-molecule compound
Type: cell-based
Settings: each compound alone in neurobasal medium (DMEM/F12, N2, B27, bFGF, EGF), markers nestin, sox1, sox2, pax6
Protocol: To investigate the function of each of small-molecule compounds and find an optimal combination of small-molecule compounds, 1×10^5 human fibroblasts were prepared in 60 mm dishes, and on the next day, the cells were cultured in a neurobasal medium (containing DMEM/F12, N2, B27, bFGF, and EGF) supplemented with each of 13 different small-molecule compounds (PD0325901, SB431542, Thiazovivin, Ascorbic acid, PS48, CHIR99021, Deazaneplanocin A, Valproic acid, Forskolin, Tranylcypromine, A8301, 5-AZA, and Purmorphamine). Then, the morphological changes of the cells were observed while the medium was replaced at 2-3-day intervals (FIG. 1). The cells were subcultured at 5-day intervals, and in this stage, the cells were sampled in order to examine gene expression patterns therein. Using the cell sample, the expression patterns of a fibroblast marker (Thy1), neural stem cell markers (nestin, sox1, sox2, pax6), a MET or EMT marker (snail, N-cadherin, E-cadherin), endodermal and mesodermal markers (AFP, GATA4), and a marker (Zsacn4) associated with the maintenance of chromosomal stability, in the cell sample, were analyzed by quantitative PCR (FIG. 2).

Compound | expressions of the neural stem cell marker genes
Nc1ncn([C@@H]2O[C@H](CO)[C@@H](O)[C@H]2O)c(=O)n1 [5-AZA, 4-amino-1-β-D-ribofuranosyl-1,3,5-triazin-2(1H)-one] | distinctly increased
Cc1cccc(-c2nn(C(=S)Nc3ccccc3)cc2-c2ccnc3ccccc23)n1 [A8301, 3-(6-Methyl-2-pyridinyl)-N-phenyl-4-(4-quinolinyl)-1H-pyrazole-1-carbothioamide] | distinctly increased
Cc1cnc(-c2cnc(NCCNc3ccc(C#N)cn3)nc2-c2ccc(Cl)cc2Cl)[nH]1 [CHIR99021, 6-[[2-[[4-(2,4-dichlorophenyl)-5-(5-methyl-1H-imidazol-2-yl)-2-pyrimidinyl]amino]ethyl]amino]-3-pyridinecarbonitrile] | distinctly increased
Nc1nccc2c1ncn2[C@@H]1C=C(CO)[C@@H](O)[C@H]1O [Deazaneplanocin A, 5R-(4-amino-1H-imidazo[4,5-c]pyridin-1-yl)-3-(hydroxymethyl)-3-cyclopentene-1S,2R-diol] | distinctly increased
NC(=O)c1ccc(-c2nc(-c3ccc4c(c3)OCO4)c(-c3ccccn3)[nH]2)cc1 [SB431542, 4-[4-(3,4-Methylenedioxyphenyl)-5-(2-pyridyl)-1H-imidazol-2-yl]benzamide] | distinctly increased
O=C(NCc1ccccc1)c1csc(Nc2ccncn2)n1 [Thiazovivin, N-(phenylmethyl)-2-(4-pyrimidinylamino)-4-thiazolecarboxamide] | distinctly increased
CCCC(CCC)C(=O)O [Valproic acid, 2-propyl-pentanoic acid] | distinctly increased
